# From ChEMBL document CHEMBL4425154, “New P2X3 receptor antagonists. Part 2: Identification and SAR of quinazolinones” (Bioorg Med Chem Lett, 2016)
# Settings: human, microsomes, 2.5 µM
row,Compound,CLH
1,NS(=O)(=O)c1ccccc1-c1ccc2ncnc(NCc3ccc(Cl)nc3)c2c1,0.024 mL/h/kg
2,COc1ccc(OC)c(CCN2CCc3ccc(-c4ccccc4S(N)(=O)=O)cc3C2)c1,1.38 mL/h/kg
3,COc1cc(CCn2cnc3ccc(-c4noc(C)n4)cc3c2=O)cc(OC)c1,1.32 mL/h/kg
4,COc1cc(CCn2cnc3ccc(-c4ccccc4S(=O)(=O)N(C)C)cc3c2=O)cc(OC)c1,17.6 mL/h/kg
5,COc1ccc(OC)c(C(C)n2cnc3ccc(-c4ccccc4S(N)(=O)=O)cc3c2=O)c1 (stereo unspecified),2.88 mL/h/kg
6,CNc1ccc(-c2ccccc2S(N)(=O)=O)cc1C(=O)NCCc1cc(OC)ccc1OC,11.5 mL/h/kg
